Where a name gives a salt, the structure may show the parent alone.
How the values were obtained:
sonic hedgehog pathway [1] = experiment: Human hedgehog reporter assay HEPM-GliLuc (HGL); assay type: cell-based; conditions: HepM human embryonic palatal mesenchymal cells, gli-luciferase reporter; read-out: HEPM Avg. EC50
Text: (§1) Mouse (TM3: mouse Leydig cells; S12: mouse embryonic mesenchymal cells) and human (Daoy: human medulloblastoma cell; HepM: human embryonic palatal mesenchymal cell) cell lines are used to screen small molecules for their ability to modulate the activity of the sonic hedgehog pathway (Table 1, Table 2, and Table 3). Stable hedgehog pathway reporter cell lines are established by specific antibiotic selection following transfection of a reporter plasmid containing a luciferase gene located directly downstream from the gli promoter. Consequently, any observable changes in cellular luciferase activity may be attributed to changes in sonic hedgehog pathway activity in mouse and human cells, respectively, since gli is the major by-product of this pathway. To calculate activity, we generate an eleven point dose curve for each compound using 1:3 dilutions in 96 well assay plates. Each plate tested also contains low and high control to establish maximal pathway activation so to establish/compare a percentage activation of each tested compound (AMAX) on respective plates.
(§2) Stable hedgehog pathway reporter cell lines are established following specific antibiotic selection following transfection of a reporter plasmid
(§3) In short, typically cells are plated in MicroTiter-plates at 10,000-20,000 cells per well, in growth media (containing 10%-20% FBS). After 48-72 hrs (HGL and DGL respectively) the media in the assay plates is switched to low-serum containing media (0.5% FBS). At that time compounds are added (at 1-5 μM) to the assay plates, in the presence or absence of hedgehog protein (octyl-modified version; 1-5 ng/ml). After another 24 hrs of incubation, the media from the assay plates is discarded and replaced with luciferase assay-mix. Subsequently, plates are incubated at RT for ˜15-30 mins and then read in a luminometer. [note: addition of the Hedgehog protein, although not critical, will sensitize the assay allowing the identification of weak actives].

sonic hedgehog pathway [2] = experiment: Human hedgehog reporter assay Daoy-GliLuc (DGL); assay type: cell-based; conditions: Daoy human medulloblastoma cells, gli-luciferase reporter; read-out: Daoy Avg. EC50
Method in brief: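 Stable gli-luciferase reporter lines (mouse TM3; human Daoy and HEPM) switched to 0.5% FBS medium, given compounds at 1-5 μM with or without octyl-modified hedgehog protein (1-5 ng/ml) for 24 hrs. Luminescence read; eleven-point 1:3 dose curves, activation expressed as percentage of plate controls (AMAX).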

sonic hedgehog pathway [3] = experiment: Hedgehog reporter assay (gli-luciferase) in S12 cells; assay type: cell-based; conditions: S12 mouse embryonic mesenchymal cells, read-out: S12 Avg. EC50
Text: as §1, with “respective plates. Also we calculate EC50 values, or a concentration where the pathway will be exactly 50% activated, for each tested compound to determine potency. In these cell lines, compounds that register >20% AMAX values are considered active.” for “respective plates.”
as §2, §3

sonic hedgehog pathway [4] = experiment: Hedgehog reporter assay (gli-luciferase) in TM3 cells; assay type: cell-based, mouse; conditions: TM3 mouse Leydig cells, gli-luciferase reporter; read-out: TM3 Avg. EC50
Text: as §1, §2, §3

Compound	EC50 (sonic hedgehog pathway [2]) [nM]	EC50 (sonic hedgehog pathway [4]) [nM]	EC50 (sonic hedgehog pathway [1]) [nM]	EC50 (sonic hedgehog pathway [3]) [nM]
CNC1CCC(N(Cc2cc(-c3cccnc3)ccc2OC)C(=O)c2sc3cccc(F)c3c2Cl)CC1 (stereo not drawn) [360 (R16), 3-Chloro-4-fluoro-benzo[b]thiophene-2-carboxylic acid (2-methoxy-5-pyridin-3-yl-benzyl)-(4-methylamino-cyclohexyl)-amide dihydrochloride]	< 50	< 50	< 50	< 50
CN[C@H]1CC[C@H](N(Cc2cc(-c3ccc(N)nc3)ccc2OC)C(=O)c2sc3cccc(F)c3c2Cl)CC1 [362 (R13), 3-Chloro-4-fluoro-benzo[b]thiophene-2-carboxylic acid[5-(6-amino-pyridin-3-yl)-2-methoxy-benzyl]-(4-methylamino-cyclohexyl)-amide dihydrochloride]	< 50	< 50	< 50	< 50
CNC1CCC(N(Cc2cc(-c3ccc(C(=O)N(C)C)cc3)ccc2OC)C(=O)c2sc3ccccc3c2Cl)CC1 (stereo not drawn) [Compound 317 (R19), 3-Chloro-benzo[b]thiophene-2-carboxylic acid (4′-dimethylcarbamoyl-4-methoxy-biphenyl-3-ylmethyl)-(4-methylamino-cyclohexyl)-amide hydrochloride]		< 50	< 50	< 50
CNC1CCC(N(Cc2cc(-c3ccc(C(C)=O)cc3)ccc2OC)C(=O)c2sc3c(F)ccc(F)c3c2Cl)CC1 (stereo not drawn) [Compound 332, 3-Chloro-4,7-difluoro-benzo[b]thiophene-2-carboxylic acid (4′-acetyl-4-methoxy-biphenyl-3-ylmethyl)-(4-methylamino-cyclohexyl)-amide hydrochloride]	< 50	< 50	< 50	< 50
CN[C@H]1CC[C@@H](N(Cc2cc(-c3ccnc(C)c3)ccc2OC)C(=O)C2=C(Cl)c3c(C)ccc(F)c3C2)CC1 [Compound 355]		< 50	< 50	< 50
CNC1CCC(N(Cc2cc(-c3ccncc3)ccc2O)C(=O)c2sc3c(F)ccc(F)c3c2Cl)CC1 (stereo not drawn) [Compound 368, 3-Chloro-4,7-difluoro-benzo[b]thiophene-2-carboxylic acid (2-hydroxy-5-pyridin-4-yl-benzyl)-(4-methylamino-cyclohexyl)-amide dihydrochloride]	< 50		< 50	< 50
CNC1CCC(N(Cc2cc(-c3ccc(NS(C)(=O)=O)nc3)ccc2OC)C(=O)c2sc3c(F)ccc(F)c3c2Cl)CC1 (stereo not drawn) [Compound R10, 3-Chloro-4,7-difluoro-benzo[b]thiophene-2-carboxylic acid[5-(6-methanesulfonylamino-pyridin-3-yl)-2-methoxy-benzyl]-(4-methylamino-cyclohexyl)-amide dihydrochloride]		< 50	< 50	< 50

More lines, main results first:

EC50 (sonic hedgehog pathway [2]) [nM]	EC50 (sonic hedgehog pathway [4]) [nM]	Compound	EC50 (sonic hedgehog pathway [1]) [nM]	EC50 (sonic hedgehog pathway [3]) [nM]
	< 50	CNC1CCC(N(Cc2cc(-c3ccc(C(N)=O)cc3)ccc2OC)C(=O)c2sc3ccccc3c2Cl)CC1 (stereo not drawn) [Compound 316, 3-Chloro-benzo[b]thiophene-2-carboxylic acid (4′-carbamoyl-4-methoxy-biphenyl-3-ylmethyl)-(4-methylamino-cyclohexyl)-amide hydrochloride]	< 50	< 50
	< 50	CNC1CCC(N(Cc2cc(-c3ccc(N)nc3)ccc2OC)C(=O)c2sc3ccccc3c2Cl)CC1 (stereo not drawn) [Compound 319, 3-Chloro-benzo[b]thiophene-2-carboxylic acid [5-(6-aminopyridin-3-yl)-2-methoxy-benzyl]-(4-methylamino-cyclohexyl)-amide dihydrochloride]	< 50	< 50
	< 50	CNC1CCC(N(Cc2cc(-c3ccc(CO)cc3)ccc2OC)C(=O)c2sc3ccccc3c2Cl)CC1 (stereo not drawn) [Compound 329, 3-Chloro-benzo[b]thiophene-2-carboxylic acid (4′-hydroxymethyl-4-methoxy-biphenyl-3-ylmethyl)-(4-methylamino-cyclohexyl)-amide hydrochloride]	< 50	< 50

From patent US20120245184A1 (Aderans Research Institute, Inc., priority 2006, published 2012)
